According to PMC7168207, “Dibasic Derivatives of Phenylcarbamic Acid as Prospective Antibacterial Agents Interacting with Cytoplasmic Membrane” (Antibiotics, 2020):
Where “and” joins values, the source holds several entries; their conditions need not be identical. Equal entries are not always repeated. Where two headings read alike, the source gives them in different places.

Tests used:
S. aureus ATCC 29213 = assay: crystal violet uptake (membrane permeability); assay type: cell-based, Staphylococcus aureus; conditions: 64 µg/mL, 1 h; two-way ANOVA, Tukey's test, p < 0.05
Method: The alternation in membrane permeability was detected by crystal violet assay. Bacterial suspension treated by compounds 1f, 1g, and 1h (all 64 µg/mL) for 1 h was prepared. The uptake of crystal violet was expressed as a percentage compared to the original crystal violet solution.
The method of crystal violet uptake was used to study membrane alteration. Bacterial suspension was cultivated to log phase in CaMH and then harvested at 4500 rpm for 5 min. The cells were washed twice and resuspended in PBS containing 64 µg/mL of the tested compounds. […] A growth control without antibiotics and a control containing the same amount of DMSO as treated tubes were included. The tubes were cultivated at 37 °C for 1 h. After that, the tubes were centrifuged at 4500 rpm for 15 min and washed twice in PBS. The cells were resuspended in PBS containing crystal violet (10 µg/mL). After 15 min incubation at 37 °C and centrifugation (15 min, 4500 rpm), the absorbance of supernatant at 595 nm was measured. The experiment was repeated three times, and the results were averaged. The percentage of crystal violet uptake was counted according to the equation:(1) % of uptake = OD595 of sample/OD595 of crystal violet solution × 100

[1] = system: human monocytic leukemia THP-1 cells; assay: in vitro antiproliferative assay (WST-1); assay type: cell-based; conditions: Homo sapiens, THP-1, 24 h, read-out: Tox IC50
Outline: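 THP-1 cells in serum-free RPMI 1640 treated with compounds (DMSO ≤0.1%) for 24 h at 37 °C, 5% CO2, triplicate; viability by WST-1 tetrazolium read-out. IC50 from dose-response curve.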

[2] = set-up: method as in PMID 30274224; conditions: isocratic RP-HPLC, extrapolated lipophilicity index; cited from earlier work
[3] = system: methicillin-resistant S. aureus SA 3202; assay: MIC, broth microdilution; assay type: cell-based, Staphylococcus aureus; conditions: Staphylococcus aureus, read-out: MICs
Outline: (§1)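 Inocula are prepared at 0.5 McFarland in saline buffer from colonies grown overnight on 5% bovine blood agar, then diluted so wells hold 5 × 10^5 CFU/mL. Staphylococcal plates use CaMH; enterococcal plates use BHI. Incubation runs overnight in air at 37 °C.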

[4] = set-up: method as in PMID 30274224; conditions: methanolic solutions, c = 8.0 × 10^−5 M; cited from earlier work
[5] = system: vancomycin-resistant enterococci VRE 725B; assay: MIC, broth microdilution; assay type: cell-based, Enterococcus faecalis; conditions: Enterococcus, read-out: MICs
Outline: as §1

E. faecalis ATCC 29212 = assay: MIC, broth microdilution; assay type: cell-based, Enterococcus faecalis; conditions: Enterococcus faecalis, ATCC 29212 / ATCC 29213; EF = E. faecalis ATCC 29213
Outline: as §1

[6] = system: vancomycin-resistant enterococci VRE 342B; assay: MIC, broth microdilution; assay type: cell-based, Enterococcus faecalis; conditions: Enterococcus, read-out: MICs
Outline: as §1

[7] = system: vancomycin-resistant enterococci VRE 368; assay: MIC, broth microdilution; assay type: cell-based, Enterococcus faecalis; conditions: Enterococcus, read-out: MICs
Outline: as §1

VRE 342B = assay: synergy with antibiotics (FIC index, checkerboard); assay type: cell-based, Enterococcus faecalis; conditions: for MIC: Enterococcus, read-out: MIC of each antibacterial drug alone observed in the synergy experiment; for concentrations of the tested compound/clinically used antibiotic providing additivity or synergy: in the combination of that line
From the text: (§2) Representatives from various classes were chosen in order to study the potential difference in synergistic activity according to the diverse mechanisms of action and resistance of these drugs. The method of minimal fractional inhibitory concentration (FIC) index (FICI) in a microtitration plate was used. FICI ≤ 0.5 means synergy; 0.5 < FICI < 1 means additivity; 1 ≤ FICI < 4 means indifference; and FICI ≥ 4 means antagonism.
(§3) For synergy effect study, a method of fractional inhibitory concentration was used. […] Raw H was used for the evaluation of MIC(A); column 12 was used for evaluation of MIC(B). The plate was inoculated by the bacterial suspension to reach final concentration of 5 × 10^5 CFU/mL in the wells. The fractional inhibitory concentration (FIC) index was calculated using the concentrations in the first nonturbid (clear) well found in each row and column along the turbidity/nonturbidity interface. To interpret the combined effect, the lowest FICI was used. A ΣFIC ≤ 0.5 means synergy; 0.5 < ΣFIC < 1 means additivity; 1 ≤ ΣFIC < 4 means indifference; and ΣFIC ≥ 4 means antagonism. The tests were made in duplicate, and the results were averaged.

VRE 368 = assay: synergy with antibiotics (FIC index, checkerboard); assay type: cell-based, Enterococcus faecalis; conditions: for MIC: Enterococcus, VRE, read-out: MIC of each antibacterial drug alone observed in the synergy experiment; for concentrations of the tested compound/clinically used antibiotic providing additivity or synergy: in the combination of that line
From the text: as §2, §3

[8] = VRE 342B, tested compound/antibiotic
[9] = VRE 368, tested compound/antibiotic

MIC ([3]; MRSA3 = SA 3202) | MIC ([5]; VRE3 = VRE 725B) | MIC (E. faecalis ATCC 29212) | MIC ([6]; VRE1 = VRE 342B) | MIC ([7]; VRE2 = VRE 368) | MIC (VRE 342B; [8]) | MIC (VRE 368; [9]) | SMILES | crystal violet uptake compared with 1% Tween 20 (positive control) (S. aureus ATCC 29213) | IC50 ([1]; THP-1 cells, WST-1, 24 h) | log kw [2] | log ε2 (Ch-T) [4] | IC50 [1] | MIC [3] | MIC (VRE 342B; VRE) | concentrations of the tested compound/clinically used antibiotic providing additivity or synergy (VRE 342B; VRE 342B) | MIC (VRE 368) | concentrations of the tested compound/clinically used antibiotic providing additivity or synergy (VRE 368; VRE 368) | MIC ([5]; VRE) | MIC ([6]; VRE) | MIC ([7]; VRE)
16 µg/mL and 31.6 µM | 16 µg/mL and 31.6 µM | 32 µg/mL and 63.2 µM | 16 µg/mL and 31.6 µM | 16 µg/mL and 31.6 µM |  |  | CCCCCOc1cccc(NC(=O)OC(CN(CCC)CCC)CN2CCCC2)c1.Cl.Cl (stereo not shown) [1f, 1-[3-(dipropylammonio)-2-({[3-(pentyloxy)phenyl]carbamoyl}-oxy)propyl]pyrrolidinium dichloride] | No statistically significant difference | 4.19 ± 0.54 µM | 4.6722 | 4.27 |  |  |  |  |  |  |  |  | 
 |  |  |  |  |  |  | CN[C@H](CC(C)C)C(=O)N[C@H]1C(=O)N[C@@H](CC(N)=O)C(=O)N[C@H]2C(=O)N[C@H]3C(=O)N[C@H](C(=O)N[C@H](C(=O)O)c4cc(O)cc(O)c4-c4cc3ccc4O)[C@H](O)c3ccc(c(Cl)c3)Oc3cc2cc(c3O[C@@H]2O[C@H](CO)[C@@H](O)[C@H](O)[C@H]2O[C@H]2C[C@](C)(N)[C@H](O)[C@H](C)O2)Oc2ccc(cc2Cl)[C@H]1O [VAN, vancomycin, reference compound] |  |  |  |  | > 30 µM | 1 µg/mL and 0.69 µM | 1020 µg/mL | 128 µg/mL and 256 µg/mL | 512 µg/mL | 128 µg/mL | 1020 µg/mL and 706 µM | 512 µg/mL and 353 µM | 512 µg/mL and 353 µM
8 µg/mL and 15 µM | 4 µg/mL and 7.51 µM | 8 µg/mL and 15 µM | 4 µg/mL and 7.51 µM | 4 µg/mL and 7.51 µM | 8 µg/mL | 4 µg/mL | CCCCCCCOc1cccc(NC(=O)OC(CN(CCC)CCC)CN2CCCC2)c1.Cl.Cl (stereo not shown) [1h, 1-[3-(Dipropylammonio)-2-({[3-(heptyloxy)phenyl]carbamoyl}oxy)propyl]pyrrolidinium dichloride] | No statistically significant difference | 3.67 ± 0.01 µM | 5.5384 | 4.27 |  |  |  | 2 µg/mL |  |  |  |  | 
8 µg/mL and 15.4 µM | 8 µg/mL and 15.4 µM | 16 µg/mL and 30.8 µM | 8 µg/mL and 15.4 µM | 8 µg/mL and 15.4 µM | 8 µg/mL | 8 µg/mL | CCCCCCOc1cccc(NC(=O)OC(CN(CCC)CCC)CN2CCCC2)c1.Cl.Cl (stereo not shown) [1g, 1-[3-(dipropylammonio)-2-({[3-(hexyloxy)phenyl]carbamoyl}oxy)propyl]pyrrolidinium dichloride] | No statistically significant difference | 3.5 ± 0.31 µM | 4.9446 | 4.13 |  |  |  | 4 µg/mL |  | 4 µg/mL |  |  | 
